Assay results from patent US9463338B2, “Derivatives of the sinapinic acid” (PHARMASYNTHESE, priority 2013, dated 2016).
Where “and” joins values, the source holds several entries; their conditions need not be identical. Equal entries are not always repeated. Marks after values point to notes of the source that are not given here.

Columns and labels:
[1] = system: explants of adipose tissues; test: Slimming effect: glycerol released in culture medium of adipose tissue explants; assay type: cell-based, human
Method: The activity of the compounds of the invention on the adipocytes has been assessed. To do so, tests have been carried out on explants of adipose tissues that are kept alive according to the following experimental protocol. The products to be tested are introduced in the culture medium. After 9 days of treatment, the activity is assessed through an assay of the glycerol released in the culture medium. In order to be able to compare the potential activity of the molecules, caffeine (Sigma ref C-0750 batch 127F0396), which is known for its activity on the adipocytes (Studlar M. […] The explants are prepared from a tummy tuck ([…]-AB-40) carried out on a donor. 54 explants of tissues have been prepared and kept alive in a medium which is supplemented with penicillin/streptomycin antibiotics (Gibco ref 15140 batch 918578) at 37° C. and with 5% of CO2. The treatment has been carried out, on 3 explants, by incorporating 100 μl of the product (which is in turn at a 2% concentration in the adequate solvent, DMSO) in 2 ml of the culture medium on days J0, J2, J3, J5 and J7. Caffeine has been diluted to the desired concentration in the culture medium on these same days. The control explants have undergone no treatment. On J0, the 3 explants have been collected and frozen at -80° C. On J9, the remaining explants have been collected and preserved under the same conditions. The extraction of lipids from the culture medium has been carried out according to a tested procedure. The assay of the glycerol of the culture medium has been carried out using a glycerol assay kit (Megazyme, K-GROL) in the form of 96-well microplates and reading has been made at 340 nm with a Tecam Infinite M200 microplate reader associated to the Magellan software.

[2] = system: normal human dermal fibroblasts; test: Production of progerin in monolayer cultures of normal human dermal fibroblasts (ELISA); assay type: cell-based; details: for Progerin % DMSO / Progerin Average / Progerin, individual values / Progerin Difference (%): 96 hours; for Progerin Difference (%): vs DMSO; for neo synthesis of progerin: under the retained experimental conditions
Description: In order to study the influence of the compounds of the invention on the concentration of progerin in the cells, the assay method described by C. Verdy, J.-E. Branka and N. Mekideche in <<Quantitative assessment of lactate and progerine production in normal human cutaneous cells during normal ageing: effect of an alaria esculenta extract>>, Int. J. Cosmetic Science, 2011, 1-5, has been used.
(§1) The test system consists of monolayers of adult normal human dermal fibroblasts obtained by cultivating cells collected from a tummy tuck carried out on a person.
Insulin at 10 nM has been used as a reference product in this study. […]
(§2) The compound to be tested is solubilized in 1 mg/ml in DMSO, then diluted in the cells incubation medium, with a constant concentration of 0.1% (v/v) in DMSO.
Upon completion of the incubation period, on the one hand, the progerin has been quantified in the cellular lysates (obtained by ultrasonic action) through a sensitive and specific ELISA assay, and on the other hand, the proteins that are contained in the cellular lysates have been quantified by a spectrophotometric method (Bradford method—Bradford M. (1976) Anal. Biochem., 72, 248-254).
(§3) The statistical significance of the differences that have been observed between the <<Control>> and the <<reference product>> conditions, has been assessed through a Student test. The statistical significance of the differences that have been observed between the <<Check>> and the <<test products>> conditions, has been assessed through a one-way analysis of variance (One Way ANOVA) followed by a Holm-Sidak test (*:p<0.05).

[3] = system: normal human dermal fibroblasts; test: Production of type I pro-collagen in monolayer cultures of normal human dermal fibroblasts (E.I.A.); assay type: cell-based; details: 48 hours; for Procollagen Difference (%): vs DMSO
Method: as §1
The used reference activator is the Transforming Growth Factor β (TGF-β) at 1 ng/ml. […]
as §2
Upon completion of the incubation period, the type I pro-collagen contained in the fibroblasts incubation media has been quantified using a sensitive and specific E.I.A. kit.
Upon completion of the incubation period, the proteins contained in the cellular lysates have been quantified by a spectrophotometric method (Bradford method—Bradford M. (1976) Anal. Biochem., 72, 248-254).
as §3
The results are given in the form of μg of type I pro-collagen per mg of protein (average+/− the standard deviation, S.D.) and are reported in the following Table 5.

[4] = system: normal human melanocytes; test: Melanin production of normal human melanocytes (conditioned fibroblast media); assay type: cell-based; details: 250 μM, melanocytes 72 hours
Description: These experiments allowed to show the capability of the compounds of the invention to modulate the melanin production of normal human melanocytes cultivated in D.K.K. fibroblast monolayers.
Monolayers of normal human dermal fibroblasts have been obtained by cultivating cells collected from a tummy tuck carried out on a person. For carrying out the tests, these cells have been cultivated until obtaining confluent monolayers. Monolayers of normal human melanocytes have been obtained by cultivating cells collected from a tummy tuck carried out on a person. For carrying out the tests, these cells have been cultivated until obtaining non-confluent monolayers. […]
Afterwards, the melanocytes have been incubated for 72 hours at 37° C. in a humid atmosphere with 5% of CO2, in the absence (culture medium alone) or in the presence of kojic acid at 250 μM or of conditioned fibroblast media (see above) diluted to 1/10th in the culture medium of the melanocytes.
The active ingredient has been solubilized in DMSO (Dimethyl Sulfoxide). Afterwards, the dilutions have been carried out in the cells incubation medium with a constant concentration of 0.01% (v/v) of DMSO.
Upon completion of the incubation period, the intracellular melanin content has been quantified in the melanocytic lysates by a spectrophotometric measurement at 405 nm.
Upon completion of the incubation period, the proteins contained in the cellular lysates have been quantified by a spectrophotometric method (Bradford method).
The results are given in the form of μg of intracellular melanin per mg of total proteins of the cellular layer (averages+/− the standard deviation, S.D.).
The statistical significance of the differences observed between the <<Control>> and the <<test product>> conditions, has been assessed through a one-way analysis of variance (One Way ANOVA) followed by a Holm-Sidak test (*:p<0.05).

Q: Which “Glycerol % in comparison with caffeine” value ([1]; after 9 days of treatment) does the source give for Cn1c(=O)c2c(ncn2C)n(C)c1=O [Caffeine, caffeine, reference compound] here?
A: 100%

Q: And the “Glycerol Average” value ([1]; glycerol released in culture medium after 9 days, 100 μl of 2% product in DMSO in 2 ml medium on J0, J2, J3, J5, J7, 3 explants)?
A: 0.096 mg/mL

Q: COc1cc(/C=C/C(=O)Oc2ccc(CCO)cc2)cc(OC)c1OC(C)=O [Compound 2] was tested. Which “Progerin % DMSO” value ([2]; 10 ng/ml) did it give?
A: 25.8%

Q: What about the “Progerin Average” value ([2]; 10 ng/ml) of the same compound?
A: 286.9* ng/mg of protein

Q: What about the “Progerin, individual values” ([2]; 10 ng/ml) of the same compound?
A: 233.7 ng/mg of protein and 353.5 ng/mg of protein and 273.6 ng/mg of protein

Q: What about the “Progerin Difference (%)” value ([2]; 10 ng/ml) of the same compound?
A: −74.2%

Q: And the “Progerin % DMSO” value ([2]; 100 ng/ml)?
A: 23.1%

Q: And the “Progerin Average” value ([2]; 100 ng/ml)?
A: 256.4* ng/mg of protein

Q: What about the “Progerin, individual values” ([2]; 100 ng/ml) of the same compound?
A: 170.6 ng/mg of protein and 196.3 ng/mg of protein and 402.4 ng/mg of protein

Q: What about the “Progerin Difference (%)” value ([2]; 100 ng/ml) of the same compound?
A: −76.9%

Q: What about the “Progerin % DMSO” value ([2]; 500 ng/ml) of the same compound?
A: 26.4%

Q: And the “Progerin Average” value ([2]; 500 ng/ml)?
A: 293* ng/mg of protein

Q: What about the “Progerin, individual values” ([2]; 500 ng/ml) of the same compound?
A: 300.1 ng/mg of protein and 328.4 ng/mg of protein and 250.5 ng/mg of protein

Q: And the “Progerin Difference (%)” value ([2]; 500 ng/ml)?
A: −73.6%

Q: What about the “neo synthesis of progerin” value [2] of the same compound?
A: significantly decrease

Q: With COc1cc(/C=C/C(=O)Oc2coc(CO)cc2=O)cc(OC)c1OC(C)=O [Compound 10] as the compound, how does the “Progerin % DMSO” value ([2]; 50 ng/ml) read?
A: 23.8%

Q: What about the “Progerin Average” value ([2]; 50 ng/ml) of the same compound?
A: 264.1* ng/mg of protein

Q: And the “Progerin, individual values” ([2]; 50 ng/ml)?
A: 274.9 ng/mg of protein and 225.1 ng/mg of protein and 292.3 ng/mg of protein

Q: And the “Progerin Difference (%)” value ([2]; 50 ng/ml)?
A: −76.2%

Q: What about the “Progerin % DMSO” value ([2]; 500 ng/ml) of the same compound?
A: 26.1%

Q: And the “Progerin Average” value ([2]; 500 ng/ml)?
A: 289.6* ng/mg of protein

Q: What about the “Progerin, individual values” ([2]; 500 ng/ml) of the same compound?
A: 301.7 ng/mg of protein and 296.1 ng/mg of protein and 271.0 ng/mg of protein

Q: What about the “Progerin Difference (%)” value ([2]; 500 ng/ml) of the same compound?
A: −73.9%

Q: What about the “Progerin % DMSO” value ([2]; 5000 ng/ml) of the same compound?
A: 26.2%

Q: What about the “Progerin Average” value ([2]; 5000 ng/ml) of the same compound?
A: 291.4* ng/mg of protein

Q: And the “Progerin, individual values” ([2]; 5000 ng/ml)?
A: 261.2 ng/mg of protein and 245.9 ng/mg of protein and 366.9 ng/mg of protein

Q: What about the “Progerin Difference (%)” value ([2]; 5000 ng/ml) of the same compound?
A: −73.8%

Q: What about the “neo synthesis of progerin” value [2] of the same compound?
A: significantly decrease

Q: And the “Procollagen % DMSO” value ([3]; 10 ng/ml)?
A: 104.6%

Q: And the “Procollagen Average” value ([3]; 10 ng/ml)?
A: 54.9 pg/mg of protein

Q: And the “Procollagen, individual values” ([3]; 10 ng/ml)?
A: 45.6 pg/mg of protein and 48.7 pg/mg of protein and 70.3 pg/mg of protein

Q: What about the “Procollagen Difference (%)” value ([3]; 10 ng/ml) of the same compound?
A: 4.6%

Q: What about the “Procollagen % DMSO” value ([3]; 100 ng/ml) of the same compound?
A: 150.2%

Q: And the “Procollagen Average” value ([3]; 100 ng/ml)?
A: 78.8* pg/mg of protein

Q: And the “Procollagen, individual values” ([3]; 100 ng/ml)?
A: 74.0 pg/mg of protein and 75.9 pg/mg of protein and 86.4 pg/mg of protein

Q: And the “Procollagen Difference (%)” value ([3]; 100 ng/ml)?
A: 50.2%

Q: What about the “Procollagen % DMSO” value ([3]; 500 ng/ml) of the same compound?
A: 175.3%

Q: And the “Procollagen Average” value ([3]; 500 ng/ml)?
A: 91.9* pg/mg of protein

Q: What about the “Procollagen, individual values” ([3]; 500 ng/ml) of the same compound?
A: 90.6 pg/mg of protein and 95.4 pg/mg of protein and 89.8 pg/mg of protein

Q: What about the “Procollagen Difference (%)” value ([3]; 500 ng/ml) of the same compound?
A: 75.3%

Q: How did the Melanin/Proteins % control [4] turn out when O=c1cc(CO)occ1O [Kojic acid, kojic acid, reference compound] was run?
A: 86.6* %

Q: And the “Melanin/Proteins Average” value [4]?
A: 14.0 µg/mg

Q: And the “Melanin/Proteins, individual values” [4]?
A: 14.3 µg/mg and 13.4 µg/mg and 14.1 µg/mg
